Converted amounts (≈) assume the structure as drawn. Where a SMILES comes first, the peptide text is derived from it. [ ]: non-standard residue; d: D form. The star is where a group is joined. Orn(α-tetramethylguanidino) = CN(C)C(=N[C@@H](CCCN)C(=O)*)N(C)C; Orn = NCCC[C@H](N)C(=O)O
How the values were obtained:
in vitro = format: cell-based, rat; conditions: rat
Experimental: (§1) Human embryonic kidney (HEK293) and HeLa cells were cultured in Dulbecco's modified Eagle's/Ham's F-12 medium [DMEM/F-12 (1:1)] supplemented with FBS (10% v/v), penicillin, and streptomycin (1000 units each). Primary rat cardiomyocytes (Innoprot, Elexalde Derio, Spain) were grown in medium supplemented with FBS (20% v/v), horse serum (5% v/v), L-glutamine (2 mmol/L), sodium pyruvate (2 mmol/L), MEM non-essential amino acids (Gibco, 0.1 mmol/L), penicillin, and streptomycin (1000 units each). Surfaces for cardiomyocyte growth were coated with attachment factor first. Cells (20,000/well) were seeded into a 96-well plate (PS, sterile, flat bottom), incubated for 24 h (37°C, 5% CO2), and washed twice with PBS (100 μl/well) prior to adding colorless medium (88 μL) and peptide solution (12 μL; 5, 2.5, 1.25, […], and 0.625 g/L in PBS). Positive controls were triton X-100 (1%, v/v) and melittin (60 mg/L) as lytic peptide, whereas PBS (12%, v/v) served as negative control. After an incubation period of 24 h, supernatant (25 μL) was mixed with lactate dehydrogenase (LDH) substrate (175 μL; 0.57 mmol/L sodium pyruvate, 0.24 mmol/L NADH disodium salt, 32 mmol/L potassium dihydrogen phosphate, 66 mmol/L dipotassium phosphate) in 96-well plates (PS, sterile, flat bottom). Absorbance was recorded at 340 nm every 3 min for 30 min on the Paradigm microplate reader. Due to the total release of LDH upon triton X-100 treatment, the control contained high LDH concentrations resulting in a fast substrate turnover that was only linear for the first 6 min.
(§2) The MTT cell viability assay relied on the same cell culture. Remaining medium was replaced by a mixture of fresh colorless medium (100 μL) and MTT (10 μL; 5 g/L in PBS) and incubated for 4 h (37°C, 5% CO2). A solution of sodium dodecyl sulfate (100 μL; 10%, w/v) dissolved in hydrochloric acid (10 mmol/L) was added, incubated (16 h), and the absorbance recorded at 590 nm relative to the reference at 650 nm (Paradigm microplate reader). The relative cell viability was calculated by [(ODPeptide − ODTriton)/(ODPBS − ODTriton)] × 100% and half-maximal inhibitory concentrations (IC50) with an Excel-template from cell biology protocols (www.sciencegateway.org/ protocols/cellbio/drug/hcic50.htm). For statistical analysis an unpaired t-test was applied using GraphPad Prism 5.0.

[1] = system: Primary rat cardiomyocytes; assay: in vitro; format: cell-based; conditions: 24 h
Experimental: as §1, §2

HeLa cells [2] = assay: in vitro; format: cell-based; conditions: 24 h
Experimental: as §1, §2

E. coli DSM 1103 = assay: Transmission electron microscopy, morphological changes; format: cell-based, Escherichia coli; conditions: 1 h
Experimental: Peptide-bacteria mixtures were fixed (2% glutaraldehyde, 5 mmol/L CaCl2, 10 mmol/L MgCl2 in 0.1 mol/L sodium cacodylate buffer, pH 7.4) overnight at 4°C. […] Samples were rinsed with distilled water (5 × 10 min), incubated with aqueous uranylacetate (0.5% w/v) for 1 h at 4°C, washed with distilled water (3 × 10 min), and embedded in Epon. The hardened blocks were sectioned (50 nm) on a UCT ultramicrotome (Leica, Vienna, Austria), stained with uranyl acetate and lead citrate on an AC20 system (Leica), and visualized at a Tecnai 12 electron microscope (FEI, Eindhoven, The Netherlands) at 80 kV. Morphological effects were quantified on average for 25 cells per condition.

HeLa cells [3] = assay: Flow cytometry, endocytosis inhibition with dynasore; format: cell-based; conditions: dynasore 0.2 mmol/L 45 min, peptide 40 μmol/L 30 min
Experimental: Fresh colorless medium (150 μL) supplemented with either dynasore (0.2 mmol/L) dissolved in DMSO (final concentration of 0.2% v/v) or DMSO (0.2% v/v) as vehicle control was added. After 45 min (37°C) the supernatant was replaced by fresh medium supplemented with either dynasore or DMSO at the same concentrations (144 μL), Cf-labeled peptide added (6 μL, 1 mmol/L in water), and incubated (30 min, 37°C). Cells were fixed and stained with Hoechst 33342 as described above.
HeLa cells (50,000 for endocytosis inhibition and 70,000 for uptake kinetics) suspended in DMEM/F-12 medium (300 μL; see above) were seeded into 48-well plates (PS, sterile, flat bottom) and incubated (23 ± 1 h) using the conditions described above. Cells were washed twice with PBS (300 μL/well) and fresh medium was added (144 μL).
Cell cultures were prepared and incubated in the presence of dynasore, as described for microscopy. Cells were washed, treated with trypsin, and fixed as described above, dissolved in FACS buffer, and analyzed the same day.

SMILES: CC(C)C[C@H](NC(=O)[C@H](CCCNC(=N)N)NC(=O)[C@@H]1CCCN1C(=O)[C@H](Cc1c[nH]cn1)NC(=O)[C@@H]1CCCN1C(=O)[C@@H]1CCCN1C(=O)[C@H](CCCNC(=N)N)NC(=O)[C@@H]1CCCN1C(=O)[C@H](CCCNC(=N)N)NC(=O)[C@@H]1CCCN1C(=O)[C@H](CCCN)NC(=O)[C@H](Cc1ccc(O)cc1)NC(=O)[C@@H](NC(=O)[C@@H]1CCCN1C(=O)[C@H](CCCNC(=N)N)NC(=O)[C@H](CCCN)NC(=O)[C@H](Cc1c[nH]c2ccccc12)NC(=O)[C@H](CCCN)NC(=O)[C@H](Cc1c[nH]c2ccccc12)NC(=O)[C@H](CCCN)NC(=O)[C@H](Cc1c[nH]c2ccccc12)NC(=O)[C@H](CCCN)N=C(N(C)C)N(C)C)C(C)C)C(=O)O [Api794, gu-O(WO)3RPVYOPRPRPPHPRL-OH] ({Orn(α-tetramethylguanidino)}-W[Orn]W[Orn]W[Orn]RPVY[Orn]PRPRPPHPRL-OH)
- viability at 24 h, 0.6 g/L (in vitro): 64 ± 3%
- IC50 on cell viability [1]: >600 µg/mL
- IC50 on cell viability (HeLa cells [2]): 230 ± 90 µg/mL (≈ 77.6 µM)
- Cell: r, ruptured (E. coli DSM 1103; 16 µg/mL): 0%
- DNA/Ribosomes relocalized (E. coli DSM 1103; 16 µg/mL): 0%
- Fragments: +++, long and thick (E. coli DSM 1103; 16 µg/mL): 0%
- Fragments: ++, long and thin (E. coli DSM 1103; 16 µg/mL): 23%
- Fragments: +, small and thin (E. coli DSM 1103; 16 µg/mL): 40%
- Fragments: -, no (E. coli DSM 1103; 16 µg/mL): 37%
- Fragments: LV, large vesicles (E. coli DSM 1103; 16 µg/mL): 0%
- Membrane: i, intact (E. coli DSM 1103; 16 µg/mL): 33%
- Membrane: w, wrinkled (E. coli DSM 1103; 16 µg/mL): 67%
- Vesicle release strong (E. coli DSM 1103; 16 µg/mL): 100%
- Cell: r, ruptured (E. coli DSM 1103; 64 µg/mL): 0%
- DNA/Ribosomes relocalized (E. coli DSM 1103; 64 µg/mL): 0%
- Fragments: +++, long and thick (E. coli DSM 1103; 64 µg/mL): 23%
- Fragments: ++, long and thin (E. coli DSM 1103; 64 µg/mL): 33%
- Fragments: +, small and thin (E. coli DSM 1103; 64 µg/mL): 27%
- Fragments: -, no (E. coli DSM 1103; 64 µg/mL): 17%
- Fragments: LV, large vesicles (E. coli DSM 1103; 64 µg/mL): 3%
- Membrane: i, intact (E. coli DSM 1103; 64 µg/mL): 100%
- Membrane: w, wrinkled (E. coli DSM 1103; 64 µg/mL): 0%
- Vesicle release strong (E. coli DSM 1103; 64 µg/mL): 97%
- Cell: r, ruptured (E. coli DSM 1103; 256 µg/mL): 0%
- DNA/Ribosomes relocalized (E. coli DSM 1103; 256 µg/mL): 0%
- Fragments: +++, long and thick (E. coli DSM 1103; 256 µg/mL): 3%
- Fragments: ++, long and thin (E. coli DSM 1103; 256 µg/mL): 37%
- Fragments: +, small and thin (E. coli DSM 1103; 256 µg/mL): 43%
- Fragments: -, no (E. coli DSM 1103; 256 µg/mL): 17%
- Fragments: LV, large vesicles (E. coli DSM 1103; 256 µg/mL): 93%
- Membrane: i, intact (E. coli DSM 1103; 256 µg/mL): 3%
- Membrane: w, wrinkled (E. coli DSM 1103; 256 µg/mL): 97%
- Vesicle release strong (E. coli DSM 1103; 256 µg/mL): 97%
- Cell: r, ruptured (E. coli DSM 1103; 512 µg/mL): 3%
- DNA/Ribosomes relocalized (E. coli DSM 1103; 512 µg/mL): 30%
- Fragments: +++, long and thick (E. coli DSM 1103; 512 µg/mL): 17%
- Fragments: ++, long and thin (E. coli DSM 1103; 512 µg/mL): 30%
- Fragments: +, small and thin (E. coli DSM 1103; 512 µg/mL): 37%
- Fragments: -, no (E. coli DSM 1103; 512 µg/mL): 17%
- Fragments: LV, large vesicles (E. coli DSM 1103; 512 µg/mL): 97%
- Membrane: i, intact (E. coli DSM 1103; 512 µg/mL): 93%
- Membrane: w, wrinkled (E. coli DSM 1103; 512 µg/mL): 7%
- Vesicle release strong (E. coli DSM 1103; 512 µg/mL): 93%
- Drop of GeoMean fluorescence (uptake) in the presence of dynasore vs vehicle control (HeLa cells [3]): 50%

SMILES: CC[C@H](C)[C@H](NC(=O)[C@H](Cc1ccc(O)cc1)NC(=O)[C@@H](NC(=O)[C@@H]1CCCN1C(=O)[C@H](CCCNC(=N)N)NC(=O)[C@H](CC(N)=O)NC(=O)[C@H](CC(N)=O)NC(=O)[C@H](CCCN)N=C(N(C)C)N(C)C)C(C)C)C(=O)N1CCC[C@H]1C(=O)N[C@@H](CCCNC(=N)N)C(=O)N1CCC[C@H]1C(=O)N[C@@H](CCCNC(=N)N)C(=O)N1CCC[C@H]1C(=O)N1CCC[C@H]1C(=O)N[C@@H](Cc1c[nH]cn1)C(=O)N1CCC[C@H]1C(=O)N[C@@H](CCCNC(=N)N)C(=O)N[C@@H](CC(C)C)C(=O)O [Api137, gu-ONNRPVYIPRPRPPHPRL-OH, reference compound] ({Orn(α-tetramethylguanidino)}-NNRPVYIPRPRPPHPRL-OH)
- Cell: r, ruptured (E. coli DSM 1103; 8 µg/mL): 0%
- DNA/Ribosomes relocalized (E. coli DSM 1103; 8 µg/mL): 17%
- Fragments: +++, long and thick (E. coli DSM 1103; 8 µg/mL): 0%
- Fragments: ++, long and thin (E. coli DSM 1103; 8 µg/mL): 27%
- Fragments: +, small and thin (E. coli DSM 1103; 8 µg/mL): 30%
- Fragments: -, no (E. coli DSM 1103; 8 µg/mL): 43%
- Fragments: LV, large vesicles (E. coli DSM 1103; 8 µg/mL): 0%
- Membrane: i, intact (E. coli DSM 1103; 8 µg/mL): 100%
- Membrane: w, wrinkled (E. coli DSM 1103; 8 µg/mL): 0%
- Vesicle release strong (E. coli DSM 1103; 8 µg/mL): 100%
- Cell: r, ruptured (E. coli DSM 1103; 32 µg/mL): 0%
- DNA/Ribosomes relocalized (E. coli DSM 1103; 32 µg/mL): 30%
- Fragments: +++, long and thick (E. coli DSM 1103; 32 µg/mL): 0%
- Fragments: ++, long and thin (E. coli DSM 1103; 32 µg/mL): 23%
- Fragments: +, small and thin (E. coli DSM 1103; 32 µg/mL): 40%
- Fragments: -, no (E. coli DSM 1103; 32 µg/mL): 37%
- Fragments: LV, large vesicles (E. coli DSM 1103; 32 µg/mL): 0%
- Membrane: i, intact (E. coli DSM 1103; 32 µg/mL): 97%
- Membrane: w, wrinkled (E. coli DSM 1103; 32 µg/mL): 3%
- Vesicle release strong (E. coli DSM 1103; 32 µg/mL): 100%
- Cell: r, ruptured (E. coli DSM 1103; 128 µg/mL): 0%
- DNA/Ribosomes relocalized (E. coli DSM 1103; 128 µg/mL): 0%
- Fragments: +++, long and thick (E. coli DSM 1103; 128 µg/mL): 0%
- Fragments: ++, long and thin (E. coli DSM 1103; 128 µg/mL): 42%
- Fragments: +, small and thin (E. coli DSM 1103; 128 µg/mL): 54%
- Fragments: -, no (E. coli DSM 1103; 128 µg/mL): 4%
- Fragments: LV, large vesicles (E. coli DSM 1103; 128 µg/mL): 0%
- Membrane: i, intact (E. coli DSM 1103; 128 µg/mL): 4%
- Membrane: w, wrinkled (E. coli DSM 1103; 128 µg/mL): 96%
- Vesicle release weak (E. coli DSM 1103; 128 µg/mL): 35%
- Cell: r, ruptured (E. coli DSM 1103; 512 µg/mL): 0%
- DNA/Ribosomes relocalized (E. coli DSM 1103; 512 µg/mL): 0%
- Fragments: +++, long and thick (E. coli DSM 1103; 512 µg/mL): 0%
- Fragments: ++, long and thin (E. coli DSM 1103; 512 µg/mL): 29%
- Fragments: +, small and thin (E. coli DSM 1103; 512 µg/mL): 61%
- Fragments: -, no (E. coli DSM 1103; 512 µg/mL): 11%
- Fragments: LV, large vesicles (E. coli DSM 1103; 512 µg/mL): 0%
- Membrane: i, intact (E. coli DSM 1103; 512 µg/mL): 32%
- Membrane: w, wrinkled (E. coli DSM 1103; 512 µg/mL): 68%
- Vesicle release weak (E. coli DSM 1103; 512 µg/mL): 50%

Source: article PMC4861708 (Frontiers in Cell and Developmental Biology, 2016)
